Measurements reported in patent US20240251792A1, “WEED CONTROL METHOD” (SYNGENTA CROP PROTECTION AG, priority 2021, published 2024).
Read-outs that look alike come from different tables or passages of the source.

How the values were obtained:
Type in all cases: in vivo
AMAPA = test: Pre-emergence biological efficacy (Table 3); conditions: 312 h, 1000 g/ha, after 13 days, read-out: evaluation (100=total damage to plant; 0=no damage to plant)
How it was run: (§1)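 Seeds were sown in standard soil in pots, kept one day in a glasshouse (24/19 °C day/night, 16 h light), then sprayed with an aqueous dilution in 0.2% Genapol X080 of a 50 g/l stock in acetone/AMA emulsifier mix. Damage was scored visually after 13 days (0 = none, 100 = total).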

AMARE = test: Pre-emergence biological efficacy (Table 3); conditions: Amaranthus retroflexus, 312 h, 1000 g/ha, after 13 days, read-out: evaluation (100=total damage to plant; 0=no damage to plant)
How it was run: as §1

ECHCG = test: Pre-emergence biological efficacy (Table 3); conditions: Echinochloa crus-galli, 312 h, 1000 g/ha, after 13 days, read-out: evaluation (100=total damage to plant; 0=no damage to plant)
How it was run: as §1

IPOHE = test: Pre-emergence biological efficacy (Table 3); conditions: Ipomoea hederacea, 312 h, 1000 g/ha, after 13 days, read-out: evaluation (100=total damage to plant; 0=no damage to plant)
How it was run: as §1

SETFA = test: Pre-emergence biological efficacy (Table 3); conditions: Setaria faberi, 312 h, 1000 g/ha, after 13 days, read-out: evaluation (100=total damage to plant; 0=no damage to plant)
How it was run: as §1

ZEAMX = test: Pre-emergence biological efficacy (Table 3); conditions: 312 h, 1000 g/ha, after 13 days, read-out: evaluation (100=total damage to plant; 0=no damage to plant)
How it was run: as §1

weeds and/or crops = test: Post-emergence biological efficacy (Table 4); conditions: 312 h, 1000 g/ha, evaluated after 13 days
How it was run: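 Weeds and crops were grown 14 days in a glasshouse, then sprayed post-emergence with compound formulated in acetone/F50 and diluted in 0.2% Genapol X080 to the final dose. Damage was scored after 13 days on a 0–100 scale, where 100 is total damage.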

[1] = AMAPA, read-out: damage to plant AMAPA (100=total damage; 0=no damage)
[2] = ZEAMX, read-out: damage to plant ZEAMX (100=total damage; 0=no damage)
[3] = Amaranthus retroflexus, AMARE, read-out: damage to plant AMARE (100=total damage; 0=no damage)
[4] = Echinochloa crus-galli, ECHCG, read-out: damage to plant ECHCG (100=total damage; 0=no damage)
[5] = Ipomoea hederacea, IPOHE, read-out: damage to plant IPOHE (100=total damage; 0=no damage)
[6] = Setaria faberi, SETFA, read-out: damage to plant SETFA (100=total damage; 0=no damage)

Row | SMILES | pest or weed control at 1000 g/ha (AMAPA) [%] | pest or weed control at 1000 g/ha (AMARE) [%] | pest or weed control at 1000 g/ha (ECHCG) [%] | pest or weed control at 1000 g/ha (IPOHE) [%] | pest or weed control at 1000 g/ha (SETFA) [%] | plant injury at 1000 g/ha (ZEAMX) [%] | pest or weed control at 1000 g/ha (weeds and/or crops; [1]) [%] | pest or weed control at 1000 g/ha (weeds and/or crops; [2]) [%] | pest or weed control at 1000 g/ha (weeds and/or crops; [3]) [%] | pest or weed control at 1000 g/ha (weeds and/or crops; [4]) [%] | pest or weed control at 1000 g/ha (weeds and/or crops; [5]) [%] | pest or weed control at 1000 g/ha (weeds and/or crops; [6]) [%]
1 | COc1cccc(C(F)(F)C(=O)O)c1C [Compound 1-242, 2,2-Difluoro-2-(3-methoxy-2-methyl-phenyl)acetic acid] | 70 | 70 | 0 | 60 | 10 | 10 | 80 | 10 | 80 | 10 | 70 | 10
2 | Cc1c(C#N)cccc1C(F)(F)C(=O)O [Compound 1-244, 2-(3-Cyano-2-methyl-phenyl)-2,2-difluoro-acetic acid] | 80 | 90 | 50 | 90 | 90 | 40 | 90 | 60 | 90 | 60 | 70 | 70
3 | N#Cc1c(F)cccc1C(F)(F)C(=O)O [Compound 1-261, 2-(2-Cyano-3-fluoro-phenyl)-2,2-difluoro-acetic acid] | 50 | 40 | 10 | 40 | 10 | 0 | 70 | 20 | 70 | 0 | 40 | 30
4 | O=C(O)C(F)(F)c1cccc2c1CCO2 [Compound 1-420, 2-(2,3-Dihydrobenzofuran-4-yl)-2,2-difluoro-acetic acid] | 60 | 80 | 0 | 70 | 0 | 10 | 70 | 10 | 80 | 10 | 70 | 10
5 | O=C(O)C(F)(F)c1cccc(Cl)c1C1CC1 [Compound 1-428, 2-(3-Chloro-2-cyclopropyl-phenyl)-2,2-difluoro-acetic acid] | 90 | 80 | 0 | 80 | 0 | 0 | 90 | 10 | 90 | 10 | 90 | 0
6 | COC(=O)c1c(Cl)cccc1C(F)(F)C(=O)O [Compound 1-444, 2-(3-Chloro-2-methoxycarbonyl-phenyl)-2,2-difluoro-acetic acid] | 60 | 40 | 0 | 50 | 0 | 0 | 60 | 10 | 70 | 10 | 50 | 20
7 | O=C(O)C(F)(F)c1cccc(Cl)c1OC(F)F [Compound 1-452, 2-[3-Chloro-2-(difluoromethoxy)phenyl]-2,2-difluoro-acetic acid] | 50 | 50 | 10 | 70 | 30 | 30 | 80 | 40 | 80 | 50 | 70 | 50
8 | COc1c(F)ccc(C(F)(F)C(=O)O)c1F [Compound 1-458, 2-(2,4-Difluoro-3-methoxy-phenyl)-2,2-difluoro-acetic acid] | 90 | 90 | 0 | 80 | 0 | 20 | 90 | 40 | 90 | 90 | 70 | 90
9 | O=C(O)C(F)(F)c1cccc(OC(F)F)c1Cl [Compound 1-459, 2-[2-Chloro-3-(difluoromethoxy)phenyl]-2,2-difluoro-acetic acid] | 80 | 70 | 50 | 90 | 100 | 0 | 80 | 20 | 80 | 40 | 90 | 60
10 | N#Cc1c(F)ccc(C(F)(F)C(=O)O)c1Cl [Compound 1-460, 2-(2-Chloro-3-cyano-4-fluoro-phenyl)-2,2-difluoro-acetic acid] | 90 | 80 | 0 | 70 | 10 | 10 | 90 | 10 | 90 | 20 | 60 | 40
11 | COc1ccc(C(F)(F)C(=O)O)c([N+](=O)[O-])c1F [Compound 1-461, 2,2-Difluoro-2-(3-fluoro-4-methoxy-2-nitro-phenyl)acetic acid] | 30 | 40 | 0 | 20 | 30 | 10 | 80 | 0 | 80 | 10 | 20 | 30
12 | Cc1cccc(C(F)(F)C(=O)O)c1C#N [Compound 1-462, 2-(2-Cyano-3-methyl-phenyl)-2,2-difluoro-acetic acid] | 30 | 50 | 0 | 40 | 0 | 0 | 80 | 10 | 80 | 0 | 70 | 20
